Patent publication US11351185B2, “Use of isovalerylspiramycins as anti-cancer agents to inhibit metastasis” (priority 2020, dated 2022)
Values joined by “and” are separate entries in the source; they are usually repeats but may differ in a detail not shown here. Identical values can stand only once. “Also recorded” adds a separate entry of the source.

What was measured:
[1] = molecular target: T1, SELH (Sec44→Cys44) synthesized in bacteria (Homo sapiens, UniProt Q8IZQ5, U44C); assay: Surface plasmon resonance (SPR) assay, SELH; type: binding; settings: 25° C.
T1 construct: made in house
T1 sequence (Q8IZQ5 with tags, fused parts or gaps U44C): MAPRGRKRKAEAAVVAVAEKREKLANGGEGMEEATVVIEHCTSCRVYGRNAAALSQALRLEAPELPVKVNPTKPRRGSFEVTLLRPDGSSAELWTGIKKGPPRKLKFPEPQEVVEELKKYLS
Excerpt: Next, the inventors used a thermo-stability assay to confirm SELH was targeted by ISP I in LN229 and 786-O cell lines. The principle of the assay is based on altered protein thermal stabilization/destabilization due to ligand binding in living cells. […] (FIG. 5B and FIG. 6A). To verify further the specificity of ISP I's targeting of SELH, the inventors designed a surface plasmon resonance assay to assess the interaction of ISP I with SELH synthesized in bacteria.
The affinities constant (KD) and kinetics (ka and kd) of ISP I binding to SELH (Sec44→Cys44) were assayed using Biacore 8K (GE Healthcare, Sweden), all at 25° C. […] Coupling conditions were determined by protein isoelectric points. […]
To determine the binding affinity between ISP I and SELH (Sec44→Cys44), a series of ISP I dilutions was analyzed by single-cycle kinetics. […] The ISP I at various gradient concentrations and one zero concentration (running buffer) flowed over the immobilized SELH, with 120 s for binding, followed by disassociation for 120 s, and the obtained response units (RUs) were recorded. The RU values were collected, and the binding affinity data were calculated by kinetic models (1:1 interaction) within Biacore 8K Evaluation Software. The equilibrium dissociation constant (KD) was calculated to evaluate the ability of ISP I to interact with SELH.

[2] = Preclinical observation on doubled i.p. dose; type: in vivo; settings: mice; one week of continuing administration
Procedure: Furthermore, the medicament is administered in “a therapeutically effective amount,” i.e., in a single dose or in multiple, divided subdoses at a suitable interval, e.g., two, three or more subdoses over a day or another appropriate schedule, to a prescribed total amount of active, such that metastasis is inhibited in the subject. Like the dose schedule, the effective amount of medicament will depend on a variety of factors, including the age and condition of the subject, the nature and extent of the cancerous condition, any contraindications, and the pharmacokinetic and pharmacodynamic characteristics of the medicament. For example, based on an accepted guide to animal-to-human dose conversion, see Nair R. Jacob, J. Basic. Clin. Pharm.

[3] = test system: pre-rRNA (POL1 transcript); assay: pre-rRNA transcription, real-time RT-PCR; type: cell-based; settings: LN229 cells
Procedure: SELH is localized in the nucleolus, which is a sensor of oxidative stress. Yang et al., Nature communications 7: 13599 (2016); Novoselov et al., J. Biol. Chem. 282: 11960 (2007). […] JNK2 activation by oxidative stress inactivated RNA polymerase I (POL1) transcription factor TIF1A in the nucleoli to down-regulate rRNA synthesis. Mayer et al., Genes Dev. 19: 933 (2005). To investigate whether the ribosomal biogenesis was disrupted by ISP I, pre-rRNA transcription was evaluated using real-time RT-PCR analysis in LN229 cells. […] To examine the mechanisms by which ISP I disrupts POL1 transcription, the inventors initially evaluated JNK2 activity and the overall state of the transcription machinery in ISP I-treated LN229 cells.

[4] = test system: LN229-luc tumors; assay: Intracranial LN229-luc glioblastoma xenograft mouse model; type: in vivo, NSG mice
Excerpt: The inventors first assessed ISP I's anti-tumor activity in an intracranial mouse model (FIG. 11A). NSG mice were inoculated with 1×10^5 LN229-luc cells in the right-frontal cortex. After 7 days, intracranial tumor growth was confirmed via noninvasive in vivo bioluminescence imaging and mice were randomized into ISP I or DMSO (control) treatment groups.
Mice experiments were approved by the National Institute of Neurological Disorders and Stroke (NINDS) and National Cancer Institute (NCI) Animal Use and Care Committees. For intracranial xenografts establishment, NOD-Prkdc^scidII2rg^tmiWjl (NSG) mice (6-8 weeks old from the NCI-Frederick animal facility) were inoculated intracranially with 100,000 LN229-luc cells suspended in 2 μL Hank's Balanced Salt Solution (HBSS), a product of Crystalgen (Commack, N.Y. USA). After one week, luciferin signals were detected to confirm the survival of tumor cells in mice. The mice were assigned to the indicated groups according to the signal intensity, in order to keep the baseline balanced. ISP I was injected intraperitoneally daily at a dose of 66 mg/kg body weight for 24 days. The mice in control group were injected with the same volume of corn oil or saline. The viability of tumors was monitored every four days. […]

[5] = test system: renal cell carcinoma (RCC) cell lines ACHN, UM-RC-2, RCC4 and 786-O; assay: CCK8 cell viability assay, renal cell carcinoma cell lines; type: cell-based; settings: 48 hours
Procedure: To confirm the cytotoxic effect observed in the glioblastoma cell lines, the inventors assessed ISP I's effect on renal cell carcinoma (RCC) cell lines (ACHN, UM-RC-2, RCC4 and 786-0). Cell viability was assessed similarly via CKK8 analysis. […] (FIG. 4C, D).
Cell viability was measured by Cell Counting Kit-8 (CCK-8, Dojindo Molecular Technologies, Tokyo, Japan). Cells were seeded in 96-well plates at a density of 3×10^3 cells/well and cultured for 24 hours before treatment with ISP I at different concentration. After treatment for a gradient ISP I concentration from 0 to 20 μg/ml for 48 hours, while control groups were only treated in PBS solution, 10 μl of CCK-8 solution were added to each well and cells were incubated for an additional 2 hours. The absorbance in each well at a wavelength of OD450 was detected by the Synergy H1 microplate reader, a product of BioTek (Winooski, Vt. USA).

COC1C(O)CC(=O)OC(C)CC=CC=CC(OC2CCC(N(C)C)C(C)O2)C(C)CC(CC=O)C1OC1OC(C)C(OC2CC(C)(O)C(OC(=O)CC(C)C)C(C)O2)C(N(C)C)C1O (stereo not shown) [ISP I, 4″-isolvalerylspiramycin I]
binding to SELH (SPR) [1]: tightly binds to SELH
adverse effect on doubling of the i.p. dose [2]: severe diarrhea
pre-rRNA transcription [3]: decreased pre-rRNA transcription in a dose-dependent manner; also recorded: reduced Pre-rRNA (PoL1 transcript) in a dose-dependent manner
tumor growth / burden (bioluminescence imaging) ([4]; 66 mg/kg body weight i.p. every day): reduced LN229-luc tumor burden compared with the untreated group; also recorded: significantly reduced tumor growth
response in tumor-derived bioluminescence images ([4]; three mice, day 24, 66 mg/kg i.p. daily): complete response
cytotoxic effect on RCC cell lines [5]: demonstrated a cytotoxic effect
most / least sensitive RCC cell line to cytotoxic effect ([5]; ACHN, UM-RC-2, RCC4, 786-O): ACHN appeared to be the most sensitive and 786-O demonstrated to be the least sensitive
